Experimental data reported in patent US10864168B2, “Bioactive delivery vehicles” (The Regents of the University of California, priority 2014, dated 2020).

Columns and labels:
E. coli (BL21) = test: Encapsulation efficiency into bacteria by vacuum infusion; assay type: physicochemical; conditions: vacuum infused, 35% ethanol
inactivated yeast = test: Encapsulation of bioactives into inactivated yeast cells (conventional diffusion, vacuum infusion, pressure); assay type: physicochemical, Saccharomyces cerevisiae
Description: Prior to encapsulation of bioactives, selected strains of both yeast and algal cells are inactivated with a chemical treatment. Chemical inactivation of yeast or algal cells stops the metabolic processes while preserving the structure and chemical composition of the cells. […] The concentration of ethanol is selected based on the results of the previous study. Briefly, 1 gm of yeast or algal cells pellet is suspended in the 35% ethanolic solution of the selected bioactive compound. […] We have determined the % ethanol to achieve sufficient encapsulation of the selected encapsulated bioactive compounds using both the vacuum and high pressure assisted encapsulation process. Yeast or algal cell samples suspended in the ethanolic solution with the bioactive compound are sealed in boilable vacuum bags (Prime Source) at 99% vacuum (Ultravac 250, Koch Equipment LLC). […] The sealed samples are covered with aluminum foil to prevent any photo-degradation of the bioactives and incubated at room temperature (25° C.) for 10 minutes. Samples are emptied into 50 mL centrifuge tubes, centrifuged at 2200 rpm for 10 minutes to pellet the cells and the pelleted cells are washed twice with ethanolic solution (35%) and then five times with excess water to remove unencapsulated bioactives. […] Samples are emptied into 50 mL centrifuge tubes, centrifuged to pellet the cells (2200 rpm for 10 minutes) and the pelleted cells are washed twice with ethanolic solution (35%) and then five times with excess water to remove unencapsulated bioactives. Briefly, yeast or algal samples in a 35% ethanolic solution of the selected bioactive compound are covered with a single layer of aluminum foil to prevent photolysis. Samples are then placed into a rotary incubator at 50° C. and 200 rpm for 24 hours. After removal from the incubator, cells are removed by centrifugation at 2000 rpm for 10 minutes. The supernatant is decanted to isolate the pelleted cells and the pelleted cells are washed as described above to remove unencapsulated bioactives. Cells are sonicated to disrupt the cellular structure. A methanol extraction is utilized to extract the encapsulated bioactives from the disrupted yeast or algal cells. 0.05 g of cells (wet basis) with encapsulated bioactives are sonicated to disrupt cellular structure and subsequently incubated with 1 mL methanol. Samples are then briefly vortexed and centrifuged at 14,000 rpm for 10 minutes. The concentration of bioactive compound dissolved in the organic phase is measured using UV-vis spectrophotometer. […] Measuring loading of these bioactive compounds in various emulsions and nanoparticles has been described. The encapsulation efficiency is determined as follows: [formula] where CE is the mass of extracted bioactive from the cells after encapsulation and CT is the amount of bioactive initially added to the cells. We have developed an innovative bioencapsulation process that provides rapid and efficient infusion of bioactives in isolated cells and lipid bodies. In this process, yeast or algal cells incubated in a solution containing bioactive were subjected to a vacuum (97% vacuum) or mild-high hydrostatic pressure (35-100 MPa) for ˜5-10 minutes. […] The results of these measurements were compared with the conventional process used for encapsulation of bioactive compounds in yeast cells.

L. casei (S1) = test: Encapsulation efficiency into bacteria by vacuum infusion; assay type: physicochemical, Lactobacillus casei; conditions: vacuum infused, 35% ethanol
porcine skin = test: Nile Red release from yeast encapsulation system into porcine skin; conditions: yeast microcapsules loaded with Nile Red; room temperature, 12 hours
Procedure: The Nile Red fluorescence signal contrast of porcine skin incubated with yeast encapsulation system and non-incubated porcine skin was evaluated. Yeast microcapsules were loaded with Nile Red dye and spread on porcine skin surface. After incubation at room temperature for 12 hours, fluorescence images were taken on the 20 μm-thick slice of tissue cross-section. The results are depicted in FIG. 17. […] This encapsulation system thus provides an option for convenient, pain-free and efficient compound delivery, which can be self-administered and operate as an alternative to oral dosing or injections.

[1] = Storage stability of encapsulated retinol at room temperature, exposure to atmospheric oxygen; assay type: physicochemical; conditions: cell-based encapsulants / lipid membrane microcapsules
Description: FIG. 10 illustrates stability of retinol encapsulated yeast cells as compared to retinol in emulsion and nanoparticles at room temperature. Stability of all-trans retinol encapsulated in casein stabilized emulsion, zein nanoparticles and yeast cells. The percent recovery of retinol in model systems after exposure to atmospheric oxygen is shown. Yeast cells provided the most stability to retinol, nearly 100% up to 5 days, while zein and casein systems have <10% after 4 days.
Retinol was selected as a model bioactive as it is highly susceptible to oxidative degradation at room temperature.

[2] = Thermal stability of retinol, cell encapsulated versus emulsions; assay type: physicochemical; conditions: vacuum and/or HPP infusion methods, compared to emulsions
Procedure: Comparative percent recovery of retinol in emulsions and yeast after processing at 70° C. for 30 minutes. The retinol was extracted using methanol and the absorbance was measured at 325 nm.

[3] = 100 mM PBS, pH = 6.5, Conventional Diffusion, saturated solution, 35% v/v ethanol
[4] = 100 mM PBS, pH = 6.5, HPP (200 MPa), saturated solution, 35% v/v ethanol
[5] = 100 mM PBS, pH = 6.5, Vacuum Infusion, saturated solution, 35% v/v ethanol
[6] = 2% Tween 20 in 100 mM Tris Buffer, pH = 8, Conventional Diffusion, saturated solution, 35% v/v ethanol
[7] = 2% Tween 20 in 100 mM Tris Buffer, pH = 8, HPP (200 MPa), saturated solution, 35% v/v ethanol
[8] = 2% Tween 20 in 100 mM Tris Buffer, pH = 8, Vacuum Infusion, saturated solution, 35% v/v ethanol
[9] = Conventional Diffusion, Single Loading
[10] = Vacuum, Dual Loading (curcumin and fisetin added together)
[11] = commercial yeast, 1 vacuum cycle, 35% ethanol
[12] = commercial yeast, 3 cycles of 99% vacuum, 5 min incubation between, no additional fisetin added
[13] = inactivated yeast, Conventional Methods, 24 hours, 50° C.
[14] = inactivated yeast, Mild Pressure (35 Mpa), 10 minutes
[15] = inactivated yeast, Vacuum (5 minutes)

Structure (SMILES): O=c1c(O)c(-c2ccc(O)c(O)c2)oc2cc(O)ccc12 [Fisetin, fisetin]
- Encapsulation Efficiency (E. coli (BL21)): 30.8%
- Mass of Encapsulated Bioactive in Bacteria (E. coli (BL21)): 1.619 mg/g
- Encapsulation Efficiency (inactivated yeast; [3]): 42.6%
- Mass of Encapsulated Bioactive in Yeast (inactivated yeast; [3]): 1.11 mg/g
- Encapsulation Efficiency (inactivated yeast; [4]): 99.3%
- Mass of Encapsulated Bioactive in Yeast (inactivated yeast; [4]): 2.59 mg/g
- Encapsulation Efficiency (inactivated yeast; [5]): 105.3%
- Mass of Encapsulated Bioactive in Yeast (inactivated yeast; [5]): 2.75 mg/g
- Encapsulation Efficiency (inactivated yeast; [6]): 58.7%
- Mass of Encapsulated Bioactive in Yeast (inactivated yeast; [6]): 2.31 mg/g
- Encapsulation Efficiency (inactivated yeast; [7]): 54.8%
- Mass of Encapsulated Bioactive in Yeast (inactivated yeast; [7]): 2.16 mg/g
- Encapsulation Efficiency (inactivated yeast; [8]): 80.7%
- Mass of Encapsulated Bioactive in Yeast (inactivated yeast; [8]): 3.18 mg/g
- Encapsulation Efficiency (inactivated yeast; [9]): 12.2%
- Mass of Encapsulated Bioactive in Yeast (inactivated yeast; [9]): 0.061 mg/g
- Encapsulation Efficiency (inactivated yeast; [10]): 96.0%
- Mass of Encapsulated Bioactive in Yeast (inactivated yeast; [10]): 0.480 mg/g
- Encapsulated Efficiency (inactivated yeast; [11]): 69.5%
- Mass of Encapsulated Bioactive in Yeast (inactivated yeast; [11]): 3.65 mg/g
- Encapsulated Efficiency (inactivated yeast; [12]): 76.4%
- Mass of Encapsulated Bioactive in Yeast (inactivated yeast; [12]): 4.01 mg/g
- encapsulation efficiency (percent ratio of encapsulated bioactive with respect to total bioactive in solution) (inactivated yeast; [13]): 11%
- encapsulation efficiency (percent ratio of encapsulated bioactive with respect to total bioactive in solution) (inactivated yeast; [14]): 68%
- encapsulation efficiency (percent ratio of encapsulated bioactive with respect to total bioactive in solution) (inactivated yeast; [15]): 64%
- encapsulation efficiency relative to conventional diffusion techniques (inactivated yeast; inactivated yeast, vacuum or HPP): 1.4-2.3 ×
- Encapsulation Efficiency (L. casei (S1)): 43.2%
- Mass of Encapsulated Bioactive in Bacteria (L. casei (S1)): 2.271 mg/g

Structure (SMILES): CCN(CC)c1ccc2nc3c4ccccc4c(=O)cc-3oc2c1 [Nile Red]
- release and permeation into porcine skin (porcine skin): effectively released from yeast cells, further permeated crossing the stratum corneum and reached the dermis layer

Structure (SMILES): CC1=C(/C=C/C(C)=C/C=C/C(C)=C/CO)C(C)(C)CCC1 [Retinol, retinol]
- encapsulation efficiency (percent ratio of encapsulated bioactive with respect to total bioactive in solution) (inactivated yeast; [13]): 15%
- encapsulation efficiency (percent ratio of encapsulated bioactive with respect to total bioactive in solution) (inactivated yeast; [14]): 70%
- encapsulation efficiency (percent ratio of encapsulated bioactive with respect to total bioactive in solution) (inactivated yeast; [15]): 45%
- improvement of storage stability as compared to other encapsulation systems, including nanoparticles and emulsions [1]: at least 5 fold
- reduction of loss of retinol during thermal processing [2]: 25-30%
